Measured values from patent US20080280953A1, “Agents Used for the Treatment of Seeds” (Bayer Cropscience AG, priority 2004, published 2008).

How the values were obtained:
Type in all cases: in vivo
[1] = system: horse chestnut scale (Pulvinaria regalis); experiment: Pulvinaria regalis test, spraying of chestnut trees (Example B1); details: 100 ppm, spray on chestnut trees
Procedure: (§1) To prepare a suitable active compound preparation 1 part by weight of the active compound is mixed with the given amount of solvent and emulsifier and the concentrate is diluted to the desired concentration with water containing emulsifier.
Chestnut trees (Castaney vesca) that are infested with horse chestnut scale (Pulvinaria regalis) are treated by spraying with the active compound preparation at the desired concentration.
After the desired time the death rate in % is determined. Here 100% means that all animals were killed; 0% means that no animals were killed.

[2] = system: mealy cabbage aphid (Brevicoryne brassicae); experiment: Brevicoryne brassicae test, open land (spray treatment), Example J1; details: 300 g/ha, spray on cabbage plants
Procedure: (§2) To prepare a suitable active compound preparation 1 part by weight of the active compound is mixed with the given amount of water to the desired concentration.
(§3) Cabbage plants (Brassica oleracea) that are infested with all stages of the mealy cabbage aphid (Brevicoryne brassicae) are sprayed with an active compound preparation at the desired concentration.
(§4) After the desired time the death rate in % is determined. Here 100% means that all aphids were killed; 0% means that no aphids were killed.

[3] = system: mixed thrips population (Frankliniella occidentalis); experiment: Frankliniella occidentalis test, spraying of cotton plants; details: 100 ppm, spray on cotton plants
Procedure: as §1
Cotton plants (Gossypium hirsutum) are treated by spraying with the active compound preparation at the desired concentration and infected with a mixed thrips population (Frankliniella occidentalis).
After the desired time the activity in % is determined. Here 100% means that all thrips were killed; 0% means that no thrips were killed.

[4] = system: caterpillars of the fall army worm (Spodoptera frugiperda); experiment: Spodoptera frugiperda test (spray treatment); details: 500 g/ha; spray on maize leaf sections; after 7 d
Procedure: as §1
Maize leaf sections (Zea mays) are sprayed with an active compound preparation at the desired concentration and after drying treated with caterpillars of the fall army worm (Spodoptera frugiperda).
After the desired time the activity in % is determined. Here 100% means that all caterpillars were killed; 0% means that no caterpillars were killed.

[5] = system: white fly (Bemisia tabaci), all stages; experiment: Bemisia tabaci test, open land (spray treatment); details: 300 g/ha, spray on paprika plants
Procedure: as §2
Paprika plants (Capsicum annuum) that are infested with all stages of the white fly (Bemisia tabaci) are sprayed with an active compound preparation at the desired concentration.
After the desired time the death rate in % is determined. Here 100% means that all white fly were killed; 0% means that no white fly were killed.

[6] = system: adults of the Colorado beetle (Leptinotarsa decemlineata); experiment: Leptinotarsa decemlineata adults test; details: 60 g/ha, spray on potato leaves
Procedure: as §1
Leaves of potato plant (Solanum tuberosum) that are infested with adults of the Colorado beetle, (Leptinotarsa decemlineata) are treated by spraying with the active compound at the desired concentration.
After the desired time the activity in % is determined. Here 100% means that all beetles were killed; 0% means that no beetles were killed.

[7] = system: green peach aphid (Myzus persicae); experiment: Myzus persicae test (soil application); details: 4 ppm in soil, pepper plant
Procedure: (§5) To prepare a suitable active compound preparation 1 part by weight of the active compound is mixed with the given amount of solvent and emulsifier and the concentrate is diluted to the desired concentration with water.
The active compound mixture was mixed with soil. The concentration given refers to amount of active compound per volume unit of earth (mg/l=ppm). Pots are filled with the treated earth and planted with a pepper plant (Capsicum annuum). After a week they are infected with the green peach aphid (Myzus persicae).
as §4

[8] = system: white fly (Bemisia tabaci) eggs and larvae; experiment: Bemisia tabaci test, treated soil (Example Z); details: 4 ppm in soil, cotton plant
Procedure: as §5
The active compound preparation is mixed with earth. The concentration given relates to the amount of active compound per volume unit soil (mg/l=ppm). The treated earth is filled into pots and planted with a cotton plant (Gossypium hirsutum). After a week infection is carried out with white fly (Bemisia tabaci) for egg deposition.
After the desired time the death rate of eggs and larvae, respectively, in % is determined. Here 100% means that all animals were killed; 0% means that no animals that were killed.

[9] = system: green leaf hopper (Nephotettix sp.); experiment: Nephotettix sp. test, open land (spray treatment); details: 300 g/ha, spray on rice plants
Procedure: as §2
Rice plants (Oryza sativa) that are infested with all stages of the green leaf hopper (Nephotettix sp.) are sprayed with an active compound preparation at the desired concentration.
After the desired time the death rate in % is determined. Here 100% means that all leaf hoppers were killed; 0% means that no leaf hoppers were killed.

[10] = system: Lucilia cuprina larvae; experiment: Fly larvae test; details: 100 ppm
Procedure: 10 mg active compound were dissolved in 0.5 ml dimethylsulphoxide. To prepare a suitable formulation the active compound solution is diluted with water to the respective desired concentration.
About 20 Lucilia cuprina larvae are placed in a test tube that contains ca. 1 cm^3 horse flesh and 0.5 ml of the active compound preparation under test.
After the desired time the death rate in % is determined. Here 100% means that all larvae were killed; 0% means that no larvae were killed.

[11] = system: larvae of the Colorado beetle (Leptinotarsa decemlineata); experiment: Leptinotarsa decemlineata larvae test, spraying of potato leaves; details: 60 g ai/ha, spray on potato leaves
Procedure: as §1
Leaves of potato plants (Solanum tuberosum) that are infested with the larvae of the Colorado beetle (Leptinotarsa decemlineata) are treated by spraying with the active compound preparation at the desired concentration.
After the desired time the activity in % is determined. Here 100% means that all beetle larvae were killed; 0% means that no beetle larvae were killed.

[12] = system: cotton aphid (Aphis gossypii); experiment: Aphis gossypii test (seed application); details: 4 g ai/ha, cotton seed treatment
Procedure: as §5
Cotton seeds (Gossypium hirsutum) are treated with the active compound preparation and sown into soil. After ca. 2 week the cotton plants are infected with the cotton aphid (Aphis gossypii). After the desired time the death rate in % is determined. Here 100% means that all aphids were killed; 0% means that no aphids were killed.

[13] = system: mealy cabbage aphid (Brevicoryne brassicae); experiment: Brevicoryne brassicae test, open land (spray treatment), Example M1; details: 300 g/ha, spray on cabbage plants
Procedure: as §2, §3
After the desired time the death rate in % is determined. Here 100% means that all nymphs were killed; 0% means that no nymphs were killed.

[14] = system: bird cherry-oat aphid (Rhopalosiphon padi); experiment: Rhopalosiphon padi test (seed application); details: 1.4 g ai/kg, barley seed treatment
Procedure: as §5
Barley seed (Hordeum vulgare) is treated with the active compound preparation and sown into the soil. After about 1 week the barley plants are infected with the bird cherry-oat aphid (Rhopalosiphon padi).
as §4

[15] = system: onion thrips (Thrips tabaci); experiment: Thrips tabaci test, open land (spray treatment); details: 300 g/ha, spray on onions
Procedure: as §2
Onions (Allium cepa) that are infested with all stages of the onion thrips (Thrips tabaci) are sprayed with an active compound preparation at the desired concentration.
After the desired time the death rate in % is determined. Here 100% means that all thrips were killed; 0% means that no thrips were killed.

Row | SMILES | death rate after 30 days [1] [%] | death rate after 22 days [2] [%] | Activity in % after 14 d [3] [%] | Death rate in % after 7 d [4] [%] | death rate after 65 days [5] [%] | activity after 7 days [6] [%] | Activity in % after 7 d [7] [%] | death rate after 14 days [8] [%] | death rate after 15 days [9] [%] | death rate after 2 days [10] [%] | Activity in % after 6 d [11] [%] | Activity in % after 7 d [12] [%] | death rate after 28 days [13] [%] | Activity in % after 7 d [14] [%] | death rate after 14 days [15] [%]
1 | CN(Cc1ccc(Cl)nc1)C1=CC(=O)OC1 [Compound 84] | 100 | 99 | 99 | 100 | 93 | 100 | 100 | 100 | 98 | 100 | 100 | 100 | 96 | 100 | 89
2 | O=C1C=C(N(Cc2ccc(Cl)nc2)C2CC2)CO1 [Compound 88] | 95 | 99 | 99 | 100 | 93 | 100 | 100 | 100 | 99 | 100 | 100 | 100 | 99 | 100 | 98
